According to ChEMBL document CHEMBL1201862, “PubChem BioAssay data set” (2004):
Values joined by “and” are separate entries in the source; they are usually repeats but may differ in a detail not shown here. Identical values can stand only once.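 In this assay, cells in 96-well plates receive the compound at five concentrations for 48 hours. Endpoints are linearly interpolated between the surrounding concentrations. GI50 is the concentration that inhibits growth by half.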 Active and inactive are the calls of the source. Rule as the data show it: active = GI50 up to about 1.1 µM and inactive = higher.

Tests used:
Assay in all cases: NCI tumour cell line growth inhibition, 48 h
CAKI-1 = tested on: CAKI-1
DLD-1 = tested on: DLD-1
DMS-273 = tested on: DMS-273
HCC 2998 = tested on: HCC 2998
HCT-116 = tested on: HCT-116
IGROV-1 = tested on: IGROV-1
K562 = tested on: K562
KM-20L2 = tested on: KM-20L2
KM12 = tested on: KM12
NCI-H522 = tested on: NCI-H522
OVCAR-4 = tested on: OVCAR-4
OVCAR-5 = tested on: OVCAR-5
SF-268 = tested on: SF-268
SF-295 = tested on: SF-295
SK-MEL-28 = tested on: SK-MEL-28
SK-MEL-5 = tested on: SK-MEL-5
SNB-19 = tested on: SNB-19
SW-620 = tested on: SW-620
CCRF-CEM = tested on: CCRF-CEM
NCI-H460 = tested on: NCI-H460

Measured: GI50

COc1cccc(NC(=O)CC(=O)NNCC(=O)Nc2nnc(-c3ccc(N(CCC#N)S(=O)(=O)c4ccccc4)cc3)s2)c1
inactive: CAKI-1 > 100 µM | DLD-1 45.1 µM | DMS-273 72.1 µM | HCC 2998 > 100 µM | HCT-116 63.7 µM | IGROV-1 96.4 µM | K562 37.6 µM | KM-20L2 > 100 µM | KM12 63.5 µM | NCI-H522 39 µM | OVCAR-4 65.8 µM | OVCAR-5 78.3 µM | SF-268 82.4 µM | SF-295 87.1 µM | SK-MEL-28 55.7 µM | SK-MEL-5 37.6 µM | SNB-19 > 100 µM | SW-620 > 100 µM

COc1ccc(/C(Cl)=C(\C=O)c2ccc(Cl)c(Cl)c2)cc1OC
inactive: CAKI-1 5.08 µM | CCRF-CEM 2.73 µM | DLD-1 4.46 µM | DMS-273 6.73 µM | HCT-116 4.18 µM | IGROV-1 > 10 µM | K562 3.87 µM | KM-20L2 6 µM | NCI-H460 3.4 µM | NCI-H522 2.36 µM | SF-268 3.59 µM | SF-295 3.79 µM | SK-MEL-28 13.4 µM | SK-MEL-5 12.8 µM | SNB-19 14.9 µM | SW-620 4.12 µM

C1CCC(OC2CSC2)OC1 (configuration not stated)
inactive: CCRF-CEM > 100 µM | HCC 2998 > 100 µM | HCT-116 > 100 µM | K562 > 100 µM | KM12 > 100 µM | NCI-H460 > 100 µM | NCI-H522 > 100 µM | OVCAR-4 > 100 µM | SF-268 > 100 µM | SF-295 > 100 µM | SK-MEL-28 > 100 µM | SK-MEL-5 > 100 µM | SNB-19 > 100 µM | SW-620 > 100 µM

CCOC(=O)C(C)N1C(=O)c2ccccc2S1(=O)=O (configuration not stated)
inactive: CAKI-1 > 100 µM | CCRF-CEM > 100 µM | DLD-1 > 100 µM | DMS-273 > 100 µM | HCC 2998 > 100 µM | HCT-116 > 100 µM | IGROV-1 > 100 µM | K562 > 100 µM | KM12 > 100 µM | NCI-H460 > 100 µM | NCI-H522 > 100 µM | OVCAR-4 > 100 µM | OVCAR-5 > 100 µM | SF-268 > 100 µM | SF-295 > 100 µM | SK-MEL-28 > 100 µM | SK-MEL-5 > 100 µM | SNB-19 > 100 µM | SW-620 > 100 µM

Cc1c2cnccc2c(C)c2c1c1ccccc1n2CCCCCCCl
inactive: CAKI-1 > 50 µM | CCRF-CEM 32.7 µM | DLD-1 > 50 µM | DMS-273 > 39.8 µM | HCC 2998 > 46.8 µM | HCT-116 23.6 µM | IGROV-1 > 45.7 µM | K562 18.1 µM | KM-20L2 25.1 µM | KM12 29.9 µM | NCI-H460 29.4 µM | NCI-H522 > 50 µM | OVCAR-4 > 10.5 µM | OVCAR-5 > 46.2 µM | SF-268 > 45 µM | SF-295 48.9 µM | SK-MEL-28 > 48.4 µM | SK-MEL-5 > 50 µM | SNB-19 40.4 µM | SW-620 30 µM

CN(C)C(=O)OC1C(=O)N(C)c2ccc(Cl)cc2C2(c3ccccc3)N1C2(Cl)Cl (configuration not stated)
inactive: CAKI-1 > 100 µM | CCRF-CEM 75.2 µM | DLD-1 55.1 µM | DMS-273 72.4 µM | HCC 2998 > 100 µM | HCT-116 62.7 µM | IGROV-1 > 100 µM | K562 56.6 µM | KM-20L2 40 µM | KM12 62.1 µM | NCI-H460 > 100 µM | NCI-H522 46 µM | OVCAR-4 > 100 µM | OVCAR-5 > 100 µM | SF-268 > 100 µM | SF-295 77.1 µM | SK-MEL-28 > 100 µM | SK-MEL-5 40.3 µM | SW-620 > 100 µM

COc1cc2c3cc1Oc1c(OC)c(OC)cc4c1C(Cc1ccc(cc1)Oc1cc(ccc1O)CC3N(C)CC2)N(C)CC4 (configuration not stated)
inactive: CAKI-1 14.3 µM and 16.9 µM | DLD-1 11.4 µM | HCT-116 4.6 µM and 6.76 µM | IGROV-1 16.7 µM and 11.4 µM | K562 1.49 µM and 1.71 µM | KM-20L2 10.4 µM | KM12 11.9 µM and 11.4 µM | OVCAR-4 12.4 µM and 14.1 µM | OVCAR-5 18.5 µM and 14.8 µM | SF-268 14.1 µM and 10.8 µM | SW-620 10.3 µM and 8.36 µM

CCCCCCCC/C=C\CCCCCCCCCCCC(=O)O [ERUCIC ACID]
inactive: CAKI-1 42 µM | CCRF-CEM 24.4 µM | DLD-1 42.4 µM | DMS-273 22.2 µM | HCC 2998 44.1 µM | HCT-116 22.3 µM | IGROV-1 55.1 µM | K562 22.1 µM | KM-20L2 38.3 µM | KM12 22.3 µM | NCI-H460 7.48 µM | NCI-H522 19.8 µM | OVCAR-4 30.8 µM | OVCAR-5 102 µM | SF-268 52.4 µM | SF-295 35.3 µM | SK-MEL-28 32.7 µM | SK-MEL-5 18.8 µM | SNB-19 30.8 µM | SW-620 31.6 µM
